According to patent US20030215462A1, “Use of UGT inhibitors to increase bioavailability” (priority 2001, published 2003):
Where “and” joins values, the source holds several entries; their conditions need not be identical. Equal entries are not always repeated.

What was measured:
[1] = test system: T1, UGT enzymes of human liver microsomes; experiment: Inhibition of 2ME2 glucuronidation (MG1, MG2) in human liver microsomes; format: biochemical; settings: liver 062101, 2ME2 50 μM
T1 construct: other: liver 062101
Text: Compounds were eluted using a binary solvent gradient system where solvent A was dilute phosphoric acid (pH 3) and solvent B was 80:20 acetonitrile-methanol. […] Detection was at 280 nm.

[2] = test system: T2, UGT enzymes of human liver microsomes; experiment: Inhibition of labetalol glucuronidation (LG1, LG2) in human liver microsomes; format: biochemical; settings: labetalol 50 μM
T2 construct: residual metabolism (percentage of control), labetalol LG1; other: labetalol 50 μM; residual metabolism (percentage of control), labetalol LG1; residual metabolism (percentage of control), labetalol LG2; inhi
Experimental: Supernatants were analyzed by HPLC with fluorescence detection.
Compounds were eluted using a binary solvent gradient system where solvent A was 5:5:90 tetrahydrofuran-acetonitrile-(NH4)2HPO4 50 mM, while solvent B was 25:25:50 tetrahydrofuran-acetonitrile-(NH4)2HPO4 50 mM. Solvent flow rate was 0.75 ml/min and the column temperature was ambient. […] Labetalol and metabolites were measured by fluorescence detection using a Jasco model FP920 detector. Excitation and emission wavelengths were 370 nm 418 nm respectively. Retention times for salicylamide internal standard and labetalol were 6.6 min and 15.0 min respectively.

[3] = biological target: T3, UGT enzymes of human liver microsomes (Homo sapiens, UniProt P16662); experiment: Inhibition of zidovudine glucuronidation in human liver microsomes; format: biochemical; settings: liver lot 062101
T3 construct: residual metabolism (percentage of control), zidovudine glucuronidation; other: liver lot 062101; residual metabolism (percentage of control), zidovudine glucuronidation; residual metabolism (percentage of control)
T3 sequence (P16662 1-529): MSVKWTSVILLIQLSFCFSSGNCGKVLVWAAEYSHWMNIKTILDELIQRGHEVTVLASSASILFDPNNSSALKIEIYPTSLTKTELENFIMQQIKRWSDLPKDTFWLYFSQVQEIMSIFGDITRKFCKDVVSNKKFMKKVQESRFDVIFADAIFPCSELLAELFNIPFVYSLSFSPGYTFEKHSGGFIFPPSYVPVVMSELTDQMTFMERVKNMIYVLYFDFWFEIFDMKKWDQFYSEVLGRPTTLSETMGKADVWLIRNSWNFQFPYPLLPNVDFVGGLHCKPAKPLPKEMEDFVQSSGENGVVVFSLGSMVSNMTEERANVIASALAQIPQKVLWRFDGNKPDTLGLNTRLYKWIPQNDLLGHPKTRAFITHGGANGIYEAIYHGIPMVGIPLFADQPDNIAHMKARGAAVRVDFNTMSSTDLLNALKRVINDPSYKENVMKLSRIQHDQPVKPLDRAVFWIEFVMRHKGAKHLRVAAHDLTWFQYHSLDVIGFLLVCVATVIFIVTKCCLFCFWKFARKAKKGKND
Experimental: Compounds were eluted using a binary solvent gradient system where solvent A was dilute phosphoric acid (pH 3) and solvent B was acetonitrile.
Standardized incubations utilized 500 μM zidovudine substrate, 1 mg/ml microsomal protein, 5 mM UDPGA and a 30 min incubation time. […] Int.

UGT1A1 = biological target: T4, UGT1A1 (Homo sapiens, UniProt P22309); experiment: Inhibition of raloxifene glucuronidation by recombinant UGT1A1 Supersomes; settings: for inhibition of raloxifene glucuronidation, in words: UGT1A1; for activity at 15 min / activity at 15 min, 10 µM / activity at 15 min, 25 µM / activity at 15 min, 50 µM: human; for activity at 15 min, 10 µM: inhibitor 10 μM; for activity at 15 min, 25 µM: inhibitor 25 μM; for activity at 15 min, 50 µM: inhibitor 50 μM
T4 sequence (P22309 26-533): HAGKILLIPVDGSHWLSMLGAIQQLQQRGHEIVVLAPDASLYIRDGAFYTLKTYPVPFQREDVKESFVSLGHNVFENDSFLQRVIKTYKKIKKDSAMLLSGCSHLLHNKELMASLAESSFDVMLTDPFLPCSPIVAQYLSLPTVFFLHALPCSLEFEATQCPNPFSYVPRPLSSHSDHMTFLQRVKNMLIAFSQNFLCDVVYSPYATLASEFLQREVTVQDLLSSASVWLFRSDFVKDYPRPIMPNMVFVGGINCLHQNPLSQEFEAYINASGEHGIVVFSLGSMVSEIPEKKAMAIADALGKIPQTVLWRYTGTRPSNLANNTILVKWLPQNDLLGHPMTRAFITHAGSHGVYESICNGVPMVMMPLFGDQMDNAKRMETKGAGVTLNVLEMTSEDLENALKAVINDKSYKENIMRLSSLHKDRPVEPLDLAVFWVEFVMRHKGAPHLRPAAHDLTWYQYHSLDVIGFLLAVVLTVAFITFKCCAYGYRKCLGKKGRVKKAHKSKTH
Experimental: (§1) Compounds were eluted using a binary solvent gradient system. Solvent A was water brought to pH 8 with NH4OH. Solvent B was methanol. Solvent flow rate was 1 ml/min and the column temperature was maintained at 50° C. Detection was at 280 nm. […] The system was then returned to the initial conditions and equilibrated for 3 min.

UGT1A8 = biological target: T5, UGT1A8 (Homo sapiens, UniProt Q9HAW9); experiment: Inhibition of raloxifene glucuronidation by recombinant UGT1A8 Supersomes; settings: for inhibition of raloxifene glucuronidation, in words: UGT1A8; for activity at 15 min, 50 µM: human, Supersomes with recombinant human UGT1A8, pH 7.5, probe raloxifene 50 μM, inhibitor 50 μM
T5 sequence (Q9HAW9 26-530): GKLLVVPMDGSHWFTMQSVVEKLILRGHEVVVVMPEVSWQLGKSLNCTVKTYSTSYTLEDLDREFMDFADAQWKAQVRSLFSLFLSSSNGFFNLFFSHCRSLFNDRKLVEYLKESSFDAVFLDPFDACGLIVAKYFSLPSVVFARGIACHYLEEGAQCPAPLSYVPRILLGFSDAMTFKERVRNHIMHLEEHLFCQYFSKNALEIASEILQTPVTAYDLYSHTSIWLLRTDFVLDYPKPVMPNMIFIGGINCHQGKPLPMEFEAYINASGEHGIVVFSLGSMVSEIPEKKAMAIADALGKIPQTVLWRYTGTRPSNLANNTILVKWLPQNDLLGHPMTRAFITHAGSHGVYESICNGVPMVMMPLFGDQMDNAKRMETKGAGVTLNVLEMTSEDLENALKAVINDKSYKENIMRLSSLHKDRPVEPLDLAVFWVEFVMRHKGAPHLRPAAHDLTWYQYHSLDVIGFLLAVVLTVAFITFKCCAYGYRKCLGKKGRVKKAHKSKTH
Experimental: as §1

[4] = test system: T6, UGT enzymes of human liver microsomes; experiment: Kinetic and Ki studies of inhibitors of 7-HFC glucuronidation in human liver microsomes; format: biochemical; settings: 7-HFC 20-500 μM; for Km: read-out: Km of 7-HFC glucuronidation (fit of the experiment with this inhibitor)
T6 construct: percentage of control metabolism, 7-HFC glucuronidation; percentage of control metabolism, 7-HFC glucuronidation

[5] = Supersomes with recombinant human UGT1A1, pH 7.5, probe raloxifene 50 μM, formation of glucuronide G1, % of control metabolism, raloxifene G1, UGT1A1
[6] = Supersomes with recombinant human UGT1A1, pH 7.5, probe raloxifene 50 μM, formation of glucuronide G1, Inhibition of raloxifene glucuronidation, G1, UGT1A1, G1, raloxifene 50 μM, 250 μg/ml Supersomes, 1 mM UDPGA, 15 min
[7] = Supersomes with recombinant human UGT1A1, pH 7.5, probe raloxifene 50 μM, formation of glucuronide G2, % of control metabolism, raloxifene G2, UGT1A1
[8] = recombinant UGT1A1 Supersomes, pH 7.5, probe raloxifene 50 μM (formation of glucuronide G2), Inhibition of raloxifene glucuronidation, G2, UGT1A1, G2, raloxifene 50 μM, 250 μg/ml Supersomes, 1 mM UDPGA, 15 min

Row | Structure (SMILES) | residual metabolism (% of control), 2ME2 MG1 ([1]; inhibitor 25 μM) | residual metabolism (% of control), 2ME2 MG2 ([1]; inhibitor 25 μM) | residual metabolism (% of control), 2ME2 MG1 ([1]; inhibitor 50 μM) | residual metabolism (% of control), 2ME2 MG2 ([1]; inhibitor 50 μM) | residual metabolism (% of control), 2ME2 MG1 ([1]; inhibitor 100 μM) | residual metabolism (% of control), 2ME2 MG2 ([1]; inhibitor 100 μM) | residual metabolism (percentage of control), labetalol LG1 ([2]; inhibitor 100 μM) | residual metabolism (percentage of control), labetalol LG2 ([2]; inhibitor 100 μM) | residual metabolism (percentage of control), zidovudine glucuronidation ([3]; inhibitor 100 μM) | residual metabolism (percentage of control), zidovudine glucuronidation ([3]; inhibitor 200 μM) | residual metabolism (percentage of control), zidovudine glucuronidation ([3]; inhibitor 500 μM) | residual metabolism (percentage of control), labetalol LG1 ([2]; inhibitor 50 μM) | residual metabolism (percentage of control), labetalol LG2 ([2]; inhibitor 50 μM) | inhibition of raloxifene glucuronidation, in words (UGT1A1) | inhibition of raloxifene glucuronidation, in words (UGT1A8) | residual metabolism (percentage of control), zidovudine glucuronidation ([3]; inhibitor 1000 μM) | Vmax of 7-HFC glucuronidation (fit of the experiment with this inhibitor) [4] | Km [4] | also measured
1 | O=C(O[C@@H]1Cc2c(O)cc(O)cc2O[C@@H]1c1ccc(O)c(O)c1)c1cc(O)c(O)c(O)c1 [Epicatechin gallate] | 47 (1) % | 79 (2) % | 33 (1) % | 69 (2) % | 17 (1) % | 58 (1) % | 74 (1) % | 86 (2) % | 67 (1) % | 60 (2) % | 28 (1) % | – | – | – | – | – | – | – | residual metabolism (percentage of control), zidovudine glucuronidation ([3]; inhibitor 50 μM): 80 (1) %
2 | CCCOC(=O)c1cc(O)c(O)c(O)c1 [Propyl gallate] | – | – | – | – | – | – | – | – | – | – | 77 (2) % | – | – | – | – | – | – | – | –
3 | O=c1c(O)c(-c2ccc(O)c(O)c2)oc2cc(O)cc(O)c12 [Quercetin] | 63 (3) % | 87 (3) % | 30 (4) % | 68 (3) % | 15 (0) % | 50 (2) % | 56 (8) % and 49 (7) % | 47 (6) % and 43 (9) % | 94 (8) % | 64 (4) % | – | 78 (4) % | 70 (3) % | good inhibitor | ineffective | – | – | – | –
4 | C=CCc1ccc(O)c(OC)c1 [Eugenol] | – | – | – | – | – | 72 (1) % | 82 (2) % | 75 (4) % | – | – | 84 (2) % | – | – | ineffective | ineffective | 48 (4) % | – | – | –
5 | O=C(O)c1cc(-c2ccc(F)cc2F)ccc1O [Diflunisal, reference compound] | – | – | 63 (2) % | 90 (5) % | 49 (1) % | 91 (1) % | 80 (6) % and 86 (5) % | 70 (4) % and 73 (2) % | – | – | 74 (2) % | 92 (4) % | 80 (3) % | – | – | 43 (2) % | 62 ± 4 nmol/min/mg | 92 ± 9 µM | –
6 | CCCCCCCCOC(=O)c1cc(O)c(O)c(O)c1 [Octyl gallate] | – | – | 68 (3) % | 94 (4) % | 51 (0) % | 65 (3) % | – | – | – | – | 54 (3) % | – | – | excellent inhibitor | – | 17 (1) % | 57 ± 3 nmol/min/mg | 81 ± 7 µM | activity at 15 min (UGT1A1; Supersomes with recombinant human UGT1A1, pH 7.5, probe raloxifene 50 μM, formation of glucuronide G1): 65%; activity at 15 min, 10 µM (UGT1A1; [5]): 65%; activity at 15 min, 25 µM (UGT1A1; [5]): 37%; activity at 15 min, 50 µM (UGT1A1; [5]): 18%; activity at 15 min, 25 µM (UGT1A1; [6]): 37%; activity at 15 min, 50 µM (UGT1A1; [6]): 18%; activity at 15 min, 10 µM (UGT1A1; [7]): 75%; activity at 15 min, 25 µM (UGT1A1; [7]): 51%; activity at 15 min, 50 µM (UGT1A1; [7]): 31%; activity at 15 min (UGT1A1; recombinant UGT1A1 Supersomes, pH 7.5, probe raloxifene 50 μM (formation of glucuronide G2)): 75%; activity at 15 min, 25 µM (UGT1A1; [8]): 51%; activity at 15 min, 50 µM (UGT1A1; [8]): 31%; activity at 15 min, 50 µM (UGT1A8; formation of glucuronide G1, % of control metabolism, raloxifene G1, UGT1A8): 116%; activity at 15 min, 50 µM (UGT1A8; formation of glucuronide G2, % of control metabolism, raloxifene G2, UGT1A8): 95%
